Measured values from paper PMC9146984, “A Novel Proline-Rich Cathelicidin from the Alpaca Vicugna pacos with Potency to Combat Antibiotic-Resistant Bacteria: Mechanism of Action and the Functional Role of the C-Terminal Region” (Membranes, 2022).
pIC50: −log10 of the molar value. Values after ≈ are worked out from the molar mass of the structure shown. Like-named read-outs stand apart in the source and are kept apart here. Where a SMILES comes first, the peptide text is derived from it.

Experiments:
E. coli = assay: Antimicrobial assay (MIC), E. coli strains; assay type: cell-based, Escherichia coli; settings: Mueller–Hinton broth without NaCl
Experimental: (§1) The reduction of resazurin to resorufin was measured.

[1] = tested on: E. coli BL21 (DE3) Star cell extract, coupled transcription/translation of EGFP; assay: In vitro transcription/translation inhibition assay (cell-free EGFP synthesis); assay type: biochemical, Escherichia coli; settings: EGFP fluorescence, 2 h, 30 °C; at least two independent experiments in triplicate; read-out: IC50, inhibition of in vitro protein synthesis in the E. coli cell-free system
Experimental: To investigate the effect of cathelicidins on the coupled transcription/translation process, the peptides were added to a cell-free protein synthesis (CFPS) reaction mix with a plasmid encoding enhanced green fluorescent protein (EGFP) variant (F64L, S65T, Q80R, F99S, M153T, and V163A) under control of the T7 promoter as described previously with some modifications. Briefly, the peptides were dissolved in 0.1% BSA in water. Bac7[1–22] was used as a positive control inhibitor. The fluorescence of the sample without inhibitor was set as the 100% value. The reaction proceeded for 2 h in 96-well v-bottom black polystyrene microplates in a plate shaker (30 °C, 1000 rpm). The fluorescence of the synthesized EGFP was measured with the microplate reader AF2200 (λExc = 488 nm, λEm = 510 nm; Eppendorf, Hamburg, Germany). The experimental data were obtained from at least two independent experiments performed in triplicate. Non-linear regression curves were generated using GraphPad Prism v.8.0.1 (GraphPad Software Inc., San Diego, CA, USA).

E. coli BW25113 ΔompF = assay type: cell-based, Escherichia coli; settings: Mueller–Hinton broth, 24 h, 37 °C, median
Experimental: as §1

E. coli ATCC 25922 = assay type: cell-based, Escherichia coli; settings: ATCC 25922, 24 h
Experimental: as §1

E. coli BW25113 ΔmdtM = assay type: cell-based, Escherichia coli; settings: Mueller–Hinton broth, 24 h, 37 °C, median
Experimental: as §1

E. coli BW25113 ΔsbmA = assay type: cell-based, Escherichia coli; settings: Mueller–Hinton broth, 24 h, 37 °C, median
Experimental: as §1

E. coli BW25113 = assay type: cell-based, Escherichia coli; settings: BW25113, 24 h
Experimental: as §1

[2] = tested on: human embryonic kidney cells (HEK293T); assay: Cytotoxicity (MTT assay); assay type: cell-based; settings: HEK293T, 20 h incubation, MTT (Figure 3D)
Experimental: (§2) Hemolytic activity of the peptides was tested against the fresh suspension of human red blood cells (hRBC) using the hemoglobin release assay as described previously. Two experiments were performed with the hRBC from blood samples of independent donors. The quantitative data were represented as average means with standard deviations. The colorimetric 3-(4,5-dimethylthiazol-2-yl)-2,5-diphenyltetrazolium bromide (MTT) dye reduction assay was used to determine the cytotoxicity of the peptides against transformed human embryonic kidney cells (HEK293T). 10^4 cells per well in Dulbecco’s modified Eagle’s medium (DMEM/F12) supplemented with 10% fetal bovine serum (FBS; Invitrogen, Waltham, MA, USA) were placed into 96-well plates and then cultured in the CO2-incubator (5% CO2, 37 °C). After the media were removed, the peptides were dissolved in 100 µL of the same medium and added to cell cultures at different final concentrations. 20 h later, 20 μL of MTT (5 mg/mL; Sigma, St. Louis, MO, USA) was added to each well, and the plates were incubated for 4 h at 37 °C. Then, the media were discarded and a 100 µL dimethyl sulfoxide-isopropanol mixture at a ratio of 1:1 (v/v) was added to each well to dissolve the crystallized formazan. The absorbance at 570 nm was measured by a microplate reader AF2200 (Eppendorf, Hamburg, Germany). The optical density in the wells containing cells cultured without the peptides was assumed to represent 100% cell viability. Two independent experiments were performed for each peptide.

[3] = tested on: human red blood cells (hRBC); assay: Hemolysis (hemoglobin release assay); assay type: cell-based; settings: 1.5 h incubation (Figure 3C)
Experimental: as §2, with “The optical density in the wells containing cells cultured without the peptides was assumed to represent 100% cell viability. Two independent experiments were performed for each peptide.” left out

[4] = tested on: E. coli ML-35p cytoplasmic membrane; assay: Cytoplasmic membrane permeabilization (ONPG hydrolysis); assay type: cell-based, Escherichia coli; settings: PBS, 37 °C, OD405, 2.5 mM ONPG; two independent experiments
Experimental: To examine the ability of the peptides to affect the barrier function of the cytoplasmic bacterial membrane, we slightly modified the previously described procedure with the use of the E. coli ML-35p strain constitutively expressing cytoplasmic β-galactosidase but lacking lactose permease. The state of the E. coli ML-35p inner membrane was assessed based on its permeability to chromogenic marker o-nitrophenyl-β-D-galactopyranoside (ONPG, AppliChem, Darmstadt, Germany), which is the β-galactosidase substrate. The cells were incubated in the trypticase soy broth (TSB) for 16 h at 37 °C, washed three times with phosphate-buffered saline (PBS, pH 7.4) to remove residual growth media, adjusted to the concentration of 2.5 × 10^8 CFU/mL, and stored on ice until used. The assay was performed in PBS as well. The final concentration of E. coli ML-35p cells was 2.5 × 10^7 CFU/mL. The concentration of ONPG was 2.5 mM. Peptide samples were placed in the wells of a 96-well plate with a non-binding surface (NBS, Corning #3641), and the optical density (OD) of the solution rose due to the appearance of o-nitrophenol was measured at 405 nm using a microplate reader AF2200 (Eppendorf, Hamburg, Germany). The final volume in each well was 200 µL. Assays were performed at 37 °C under stirring at 500 rpm. Control experiments were performed under the same conditions without adding a peptide. Two independent experiments were performed, and the curve pattern was similar.

Compound: CC[C@H](C)[C@H](NC(=O)[C@H](CCCNC(=N)N)NC(=O)[C@@H](N)CCCNC(=N)N)C(=O)N[C@@H](CCCNC(=N)N)C(=O)N[C@@H](CCCNC(=N)N)C(=O)N1CCC[C@H]1C(=O)N[C@@H](CCCNC(=N)N)C(=O)N[C@@H](CC(C)C)C(=O)N1CCC[C@H]1C(=O)N[C@@H](CCCNC(=N)N)C(=O)N1CCC[C@H]1C(=O)N[C@@H](CCCNC(=N)N)C(=O)N[C@H](C(=O)N1CCC[C@H]1C(=O)N[C@@H](CCCNC(=N)N)C(=O)N1CCC[C@H]1C(=O)O)C(C)C [VicBac[1-16]] (H-RRIRRPRLPRPRVPRP-OH)
- killing of E. coli under salt-free conditions (E. coli): 4 to 8 µM
- pIC50 [1]: ~5.40

Compound: CC[C@H](C)[C@H](NC(=O)[C@H](CCCNC(=N)N)NC(=O)[C@@H]1CCCN1C(=O)[C@H](CCCNC(=N)N)NC(=O)[C@@H]1CCCN1C(=O)[C@@H](NC(=O)[C@H](CCCNC(=N)N)NC(=O)[C@@H]1CCCN1C(=O)[C@H](CCCNC(=N)N)NC(=O)[C@@H]1CCCN1C(=O)[C@H](CC(C)C)NC(=O)[C@H](CCCNC(=N)N)NC(=O)[C@@H]1CCCN1C(=O)[C@H](CCCNC(=N)N)NC(=O)[C@H](CCCNC(=N)N)NC(=O)[C@@H](NC(=O)[C@H](CCCNC(=N)N)NC(=O)[C@@H](N)CCCNC(=N)N)[C@@H](C)CC)C(C)C)C(=O)O [VicBac[1-18]] (H-RRIRRPRLPRPRVPRPRI-OH; N-terminus and C-terminus assumed)
- Minimum inhibitory concentration, E. coli strain ΔompF (E. coli BW25113 ΔompF; 0.9% NaCl: +): 16 µM (≈ 37.6 µg/mL)
- Minimum inhibitory concentration, E. coli strain ΔompF (E. coli BW25113 ΔompF; 0.9% NaCl: −): 8 µM (≈ 18.8 µg/mL)
- Minimum inhibitory concentration, E. coli strain ATCC 25922 (E. coli ATCC 25922): 2 µM (≈ 4.7 µg/mL)
- Minimum inhibitory concentration, E. coli strain ΔmdtM (E. coli BW25113 ΔmdtM; 0.9% NaCl: +): 2 µM (≈ 4.7 µg/mL)
- Minimum inhibitory concentration, E. coli strain ΔmdtM (E. coli BW25113 ΔmdtM; 0.9% NaCl: −): 4 µM (≈ 9.39 µg/mL)
- Minimum inhibitory concentration, E. coli strain ΔsbmA (E. coli BW25113 ΔsbmA; 0.9% NaCl: +): > 64 µM
- Minimum inhibitory concentration, E. coli strain ΔsbmA (E. coli BW25113 ΔsbmA; 0.9% NaCl: −): 4 µM (≈ 9.39 µg/mL)
- Minimum inhibitory concentration, E. coli strain BW25113 (E. coli BW25113): 4 µM (≈ 9.39 µg/mL)

Compound: Melittin [reference compound]
- concentration at which almost all cells were completely lysed [2]: < 4 µM
- concentration at which almost all cells were completely lysed [3]: < 4 µM
- effect on E. coli ML-35p cytoplasmic membrane permeability for ONPG [4]: significant damage
